{
  "source": "patent US6465654B2",
  "about": "“Process for preparing 1-substituted, 2-substituted 1H-imidazo[4, 5-c]quinoline-4-amines” (3M Innovative Properties Company, priority 1991, dated 2002)",
  "key": {"interferon-α": {"system": "interferon-α", "assay": "Interferon-α induction in human cells, PBM", "type": "cell-based", "conditions": "24 hours"}, "interferon": {"system": "interferon", "assay": "Interferon induction in mice", "type": "in vivo", "conditions": "mouse serum", "protocol": "One hour later blood samples are withdrawn from the first group. The samples are pooled then centrifuged. The serum is removed from the centrifuge tube, split into two portions, then placed in freezing vials and maintained at −70° C. until analysis. This procedure is repeated at 2 hours with the second group of mice and at 4 hours with the third group of mice. Samples are assayed as described above in connection with the analysis of interferon induction in human cells. The results are expressed in the table below as α/β reference units/mL based on the value obtained for a mouse MU-1-IF standard. Results are shown in the table below wherein results designated as “<” a certain number indicate that interferon was not detectable in amounts above the lower sensitivity level of the assay."}},
  "data": [
    {"molecule": "CCOCc1nc2c(N)nc3ccccc3c2n1CCC(C)C.Cl", "note": "[Example 109, 2-Ethoxymethyl-1-(3-methylbutyl)-1H-imidazo[4,5-c]quinolin-4-amine Hydrochloride]", "values": [
      {"measurement": "Interferon-α induction", "setting": "interferon-α; dose concentration 0.01 μg/mL", "result": "<1.4 α Reference Units/mL"},
      {"measurement": "Interferon-α induction", "setting": "interferon-α; dose concentration 0.05 μg/mL", "result": "1000 α Reference Units/mL"},
      {"measurement": "Interferon-α induction", "setting": "interferon-α; dose concentration 0.10 μg/mL", "result": "1000 α Reference Units/mL"},
      {"measurement": "Interferon-α induction", "setting": "interferon-α; dose concentration 0.50 μg/mL", "result": "97 α Reference Units/mL"},
      {"measurement": "Interferon-α induction", "setting": "interferon-α; dose concentration 1.0 μg/mL", "result": "83 α Reference Units/mL"},
      {"measurement": "Interferon-α induction", "setting": "interferon-α; dose concentration 5.0 μg/mL", "result": "78 α Reference Units/mL"}
    ]},
    {"molecule": "CCCCn1c(COCC)nc2c(N)nc3ccccc3c21", "note": "[Example 117, 1-Butyl-2-ethoxymethyl-1H-imidazo[4,5-c]quinolin-4-amine]", "values": [
      {"measurement": "Interferon-α induction", "setting": "interferon-α; dose concentration 0.01 μg/mL", "result": "<4.4 α Reference Units/mL"},
      {"measurement": "Interferon-α induction", "setting": "interferon-α; dose concentration 0.05 μg/mL", "result": "360 α Reference Units/mL"},
      {"measurement": "Interferon-α induction", "setting": "interferon-α; dose concentration 0.10 μg/mL", "result": "340 α Reference Units/mL"},
      {"measurement": "Interferon-α induction", "setting": "interferon-α; dose concentration 0.50 μg/mL", "result": "140 α Reference Units/mL"},
      {"measurement": "Interferon-α induction", "setting": "interferon-α; dose concentration 1.0 μg/mL", "result": "91 α Reference Units/mL"},
      {"measurement": "Interferon-α induction", "setting": "interferon-α; dose concentration 5.0 μg/mL", "result": "110 α Reference Units/mL"},
      {"measurement": "Interferon induction in mice", "setting": "interferon; oral 0.3 mg/kg, 1 hr", "result": "<160", "unit": "Reference Units/mL"},
      {"measurement": "Interferon induction in mice", "setting": "interferon; oral 0.3 mg/kg, 2 hr", "result": 1200, "unit": "Reference Units/mL"},
      {"measurement": "Interferon induction in mice", "setting": "interferon; oral 0.3 mg/kg, 4 hr", "result": "<160", "unit": "Reference Units/mL"},
      {"measurement": "Interferon induction in mice", "setting": "interferon; oral 1 mg/kg, 1 hr", "result": "≦270 Reference Units/mL"},
      {"measurement": "Interferon induction in mice", "setting": "interferon; oral 1 mg/kg, 2 hr", "result": 630, "unit": "Reference Units/mL"},
      {"measurement": "Interferon induction in mice", "setting": "interferon; oral 1 mg/kg, 4 hr", "result": "≦270 Reference Units/mL"},
      {"measurement": "Interferon induction in mice", "setting": "interferon; oral 3 mg/kg, 1 hr", "result": "˜820 Reference Units/mL"},
      {"measurement": "Interferon induction in mice", "setting": "interferon; oral 3 mg/kg, 2 hr", "result": 2200, "unit": "Reference Units/mL"},
      {"measurement": "Interferon induction in mice", "setting": "interferon; oral 3 mg/kg, 4 hr", "result": "˜310 Reference Units/mL"},
      {"measurement": "Interferon induction in mice", "setting": "interferon; oral 10 mg/kg, 1 hr", "result": 1100, "unit": "Reference Units/mL"},
      {"measurement": "Interferon induction in mice", "setting": "interferon; oral 10 mg/kg, 2 hr", "result": 480, "unit": "Reference Units/mL"},
      {"measurement": "Interferon induction in mice", "setting": "interferon; oral 10 mg/kg, 4 hr", "result": "˜310 Reference Units/mL"}
    ]},
    {"molecule": "1-Butyl-2-methoxyethyl-1H-imidazo[4,5-c]quinolin-4-amine [Example 115]", "values": [
      {"measurement": "Interferon-α induction", "setting": "interferon-α; dose concentration 0.01 μg/mL", "result": "91 α Reference Units/mL"},
      {"measurement": "Interferon-α induction", "setting": "interferon-α; dose concentration 0.05 μg/mL", "result": "96 α Reference Units/mL"},
      {"measurement": "Interferon-α induction", "setting": "interferon-α; dose concentration 0.10 μg/mL", "result": "120 α Reference Units/mL"},
      {"measurement": "Interferon-α induction", "setting": "interferon-α; dose concentration 0.50 μg/mL", "result": "190 α Reference Units/mL"},
      {"measurement": "Interferon-α induction", "setting": "interferon-α; dose concentration 1.0 μg/mL", "result": "190 α Reference Units/mL"},
      {"measurement": "Interferon-α induction", "setting": "interferon-α; dose concentration 5.0 μg/mL", "result": "240 α Reference Units/mL"},
      {"measurement": "Interferon induction in mice", "setting": "interferon; oral 0.3 mg/kg, 1 hr", "result": "˜380 Reference Units/mL"},
      {"measurement": "Interferon induction in mice", "setting": "interferon; oral 0.3 mg/kg, 2 hr", "result": 2500, "unit": "Reference Units/mL"},
      {"measurement": "Interferon induction in mice", "setting": "interferon; oral 0.3 mg/kg, 4 hr", "result": "˜360 Reference Units/mL"},
      {"measurement": "Interferon induction in mice", "setting": "interferon; oral 1 mg/kg, 1 hr", "result": 1400, "unit": "Reference Units/mL"},
      {"measurement": "Interferon induction in mice", "setting": "interferon; oral 1 mg/kg, 2 hr", "result": 2900, "unit": "Reference Units/mL"},
      {"measurement": "Interferon induction in mice", "setting": "interferon; oral 1 mg/kg, 4 hr", "result": "˜310 Reference Units/mL"},
      {"measurement": "Interferon induction in mice", "setting": "interferon; oral 3 mg/kg, 1 hr", "result": 2200, "unit": "Reference Units/mL"},
      {"measurement": "Interferon induction in mice", "setting": "interferon; oral 3 mg/kg, 2 hr", "result": 5300, "unit": "Reference Units/mL"},
      {"measurement": "Interferon induction in mice", "setting": "interferon; oral 3 mg/kg, 4 hr", "result": "˜310 Reference Units/mL"},
      {"measurement": "Interferon induction in mice", "setting": "interferon; oral 10 mg/kg, 1 hr", "result": 5600, "unit": "Reference Units/mL"},
      {"measurement": "Interferon induction in mice", "setting": "interferon; oral 10 mg/kg, 2 hr", "result": 5300, "unit": "Reference Units/mL"},
      {"measurement": "Interferon induction in mice", "setting": "interferon; oral 10 mg/kg, 4 hr", "result": 870, "unit": "Reference Units/mL"}
    ]},
    {"molecule": "CCCCC(c1nc2c(N)nc3ccccc3c2n1CC(C)C)N1CCOCC1", "note": "(stereo not shown) [Example 62, 2-[1-(1-Morpholino)pentyl]1-1-(2-methylpropyl)-1H-imidazo[4,5-c]quinolin-4-amine]", "values": [
      {"measurement": "Interferon-α induction", "setting": "interferon-α; dose concentration 0.10 μg/mL", "result": "<5 α Reference Units/mL"},
      {"measurement": "Interferon-α induction", "setting": "interferon-α; dose concentration 0.50 μg/mL", "result": "<5 α Reference Units/mL"},
      {"measurement": "Interferon-α induction", "setting": "interferon-α; dose concentration 1.0 μg/mL", "result": "31 α Reference Units/mL"},
      {"measurement": "Interferon-α induction", "setting": "interferon-α; dose concentration 5.0 μg/mL", "result": "760 α Reference Units/mL"},
      {"measurement": "Interferon induction in mice", "setting": "interferon; oral 0.3 mg/kg, 1 hr", "result": "<56", "unit": "Reference Units/mL"},
      {"measurement": "Interferon induction in mice", "setting": "interferon; oral 0.3 mg/kg, 2 hr", "result": "<56", "unit": "Reference Units/mL"},
      {"measurement": "Interferon induction in mice", "setting": "interferon; oral 0.3 mg/kg, 4 hr", "result": "<56", "unit": "Reference Units/mL"},
      {"measurement": "Interferon induction in mice", "setting": "interferon; oral 1 mg/kg, 1 hr", "result": "<56", "unit": "Reference Units/mL"},
      {"measurement": "Interferon induction in mice", "setting": "interferon; oral 1 mg/kg, 2 hr", "result": 97, "unit": "Reference Units/mL"},
      {"measurement": "Interferon induction in mice", "setting": "interferon; oral 1 mg/kg, 4 hr", "result": "<56", "unit": "Reference Units/mL"},
      {"measurement": "Interferon induction in mice", "setting": "interferon; oral 3 mg/kg, 1 hr", "result": 220, "unit": "Reference Units/mL"},
      {"measurement": "Interferon induction in mice", "setting": "interferon; oral 3 mg/kg, 2 hr", "result": 870, "unit": "Reference Units/mL"},
      {"measurement": "Interferon induction in mice", "setting": "interferon; oral 3 mg/kg, 4 hr", "result": 160, "unit": "Reference Units/mL"},
      {"measurement": "Interferon induction in mice", "setting": "interferon; oral 10 mg/kg, 1 hr", "result": 380, "unit": "Reference Units/mL"},
      {"measurement": "Interferon induction in mice", "setting": "interferon; oral 10 mg/kg, 2 hr", "result": 1100, "unit": "Reference Units/mL"},
      {"measurement": "Interferon induction in mice", "setting": "interferon; oral 10 mg/kg, 4 hr", "result": 380, "unit": "Reference Units/mL"}
    ]},
    {"molecule": "COCc1nc2c(N)nc3ccccc3c2n1CC(C)(C)O", "note": "[Example 111, 4-Amino-α,α-dimethyl-2-methoxymethyl-1H-imidazo[4,5-c]quinoline-1-ethanol]", "values": [
      {"measurement": "Interferon-α induction", "setting": "interferon-α; dose concentration 0.01 μg/mL", "result": "190 α Reference Units/mL"},
      {"measurement": "Interferon-α induction", "setting": "interferon-α; dose concentration 0.05 μg/mL", "result": "65 α Reference Units/mL"},
      {"measurement": "Interferon-α induction", "setting": "interferon-α; dose concentration 0.10 μg/mL", "result": "65 α Reference Units/mL"},
      {"measurement": "Interferon-α induction", "setting": "interferon-α; dose concentration 0.50 μg/mL", "result": "49 α Reference Units/mL"},
      {"measurement": "Interferon-α induction", "setting": "interferon-α; dose concentration 1.0 μg/mL", "result": "55 α Reference Units/mL"},
      {"measurement": "Interferon-α induction", "setting": "interferon-α; dose concentration 5.0 μg/mL", "result": "61 α Reference Units/mL"}
    ]}
  ]
}
